Among the data in ChEMBL document CHEMBL1135900, “Toward selective ERbeta agonists for central nervous system disorders: synthesis and characterization of aryl benzthiophenes” (J Med Chem, 2002) are EC50 values, retold here.

In experiment [1] the target is T1, Estrogen receptor (Homo sapiens, UniProt P03372).
T1 sequence (P03372 whole entry): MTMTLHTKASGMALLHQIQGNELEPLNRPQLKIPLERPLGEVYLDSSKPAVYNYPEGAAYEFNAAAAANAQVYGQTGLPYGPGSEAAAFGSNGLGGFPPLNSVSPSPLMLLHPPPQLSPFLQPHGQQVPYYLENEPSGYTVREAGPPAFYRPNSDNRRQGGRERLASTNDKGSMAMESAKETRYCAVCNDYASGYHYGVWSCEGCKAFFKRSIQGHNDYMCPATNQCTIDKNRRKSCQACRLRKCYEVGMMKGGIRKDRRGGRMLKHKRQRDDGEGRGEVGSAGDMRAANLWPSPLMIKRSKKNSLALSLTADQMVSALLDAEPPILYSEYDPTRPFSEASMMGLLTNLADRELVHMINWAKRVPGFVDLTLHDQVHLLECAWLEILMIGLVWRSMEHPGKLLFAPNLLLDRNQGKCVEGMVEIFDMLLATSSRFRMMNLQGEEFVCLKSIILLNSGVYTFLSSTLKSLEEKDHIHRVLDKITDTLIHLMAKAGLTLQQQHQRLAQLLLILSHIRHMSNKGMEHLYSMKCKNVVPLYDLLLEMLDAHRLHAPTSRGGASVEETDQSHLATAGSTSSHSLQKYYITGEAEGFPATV
Description: Inhibition of [3H]17-beta-estradiol binding to human recombinant Estrogen receptor alpha.

Experiment [2] concerns the target T2, Estrogen receptor beta (Homo sapiens, UniProt Q92731). As to the kind of experiment: Agonist activity in transcriptional activation assay in SH-SY5Y neuroblastoma cells expressing Estrogen receptor beta. In kind it is functional, cell-based.
For experiment [3], the target named is T2, Estrogen receptor beta.
Description: Inhibition of [3H]17-beta-estradiol binding to human recombinant Estrogen receptor beta.
For experiment [4], the target named is T2, Estrogen receptor beta. The source holds these as a separate data set.
Description: Activation of estrogen response element in HeLa cells stably transfected with human Estrogen receptor beta.
Experiment [5] has as its target T1, Estrogen receptor. This is another data set of the same source.
Description: Activation of estrogen response element in HeLa cells stably transfected with human Estrogen receptor alpha.

SMILES strings stand for the structures.

T2 sequence (Q92731 whole entry): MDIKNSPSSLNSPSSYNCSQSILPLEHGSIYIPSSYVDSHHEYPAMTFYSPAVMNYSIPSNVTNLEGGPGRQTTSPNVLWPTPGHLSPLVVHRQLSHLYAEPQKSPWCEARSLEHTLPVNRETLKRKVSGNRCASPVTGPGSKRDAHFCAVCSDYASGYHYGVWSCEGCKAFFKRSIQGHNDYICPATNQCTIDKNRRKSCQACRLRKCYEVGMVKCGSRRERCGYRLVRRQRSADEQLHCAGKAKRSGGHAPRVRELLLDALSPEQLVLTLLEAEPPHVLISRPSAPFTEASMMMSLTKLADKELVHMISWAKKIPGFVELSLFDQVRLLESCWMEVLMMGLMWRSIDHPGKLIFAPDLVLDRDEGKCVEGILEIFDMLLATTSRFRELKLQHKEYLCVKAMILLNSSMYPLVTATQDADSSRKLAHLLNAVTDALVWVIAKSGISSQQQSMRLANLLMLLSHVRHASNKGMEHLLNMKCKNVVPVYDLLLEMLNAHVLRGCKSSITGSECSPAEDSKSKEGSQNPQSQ

For the compound `Oc1ccc2cc(-c3ccc(O)c(F)c3)sc2c1`, the EC50 worked out at 1.03 µM in experiment [1]; 13 nM in experiment [2]; 115 nM in experiment [3]; 32 nM in experiment [4]; 138 nM in experiment [5].
Consider `Oc1ccc(-c2cc3ccc(O)cc3s2)cc1` [RALOXIFENE CORE], for which the values for the EC50 in experiment [2], in experiment [3] and in experiment [4] were 10 nM, 114 nM and 17 nM, respectively.
`Oc1cccc(-c2cc3ccc(O)cc3s2)c1`: the EC50 in experiment [1] came to 2.21 µM; in experiment [3], 740 nM; in experiment [4], 245 nM; in experiment [5], 269 nM.
For the compound `Cc1cc(O)ccc1-c1cc2ccc(O)cc2s1`, the EC50 in experiment [1] worked out at 0.341 µM; in experiment [2], 16 nM; in experiment [3] it was 129 nM; in experiment [4] it was 15 nM; in experiment [5] it was 48 nM.
For the compound `Oc1cc(O)c2cc(-c3ccc(O)c(F)c3)sc2c1`, the EC50 in experiment [1] was over 10 µM; in experiment [3], 7470 nM; in experiment [4], over 1000 nM; in experiment [5], 1000 nM.
`CCCc1cc(-c2cc3ccc(O)cc3s2)ccc1O`: the EC50 was over 10 µM in experiment [1]; 257 nM in experiment [2]; 3940 nM in experiment [3]; 186 nM in experiment [4]; 162 nM in experiment [5].
Turning to `Cc1ccc(-c2cc3ccc(O)cc3s2)cc1`, the EC50 is over 10 µM in experiment [1]; 120 nM in experiment [2]; over 10000 nM in experiment [3]; 174 nM in experiment [4]; 178 nM in experiment [5].
`CCc1cc(-c2cc3ccc(O)cc3s2)ccc1O`: the EC50 in experiment [1] was 7.44 µM; in experiment [3], 4710 nM; in experiment [4] it was 257 nM; in experiment [5], 191 nM.
The matching figures for `Cc1cc(-c2cc3ccc(O)cc3s2)ccc1O`: 3.65 µM, 1830 nM, 302 nM and 148 nM.
For `Oc1ccc2cc(-c3ccc(O)c(O)c3)sc2c1` the same measures were 4.98 µM, 249 nM, 525 nM and 363 nM.
For `CC(=O)c1cc(-c2cc3ccc(O)cc3s2)ccc1O` the same measures were over 10 µM, over 10000 nM, over 1000 nM and over 1000 nM.
Turning to `Oc1ccc2cc(-c3ccccc3)sc2c1`, the EC50 in experiment [1] worked out at 3.71 µM; in experiment [2], 69 nM; in experiment [3], 4310 nM; in experiment [4] it was 166 nM; in experiment [5], 209 nM.
Consider `Cc1cc(-c2cc3c(O)cc(O)cc3s2)ccc1O`, for which the EC50 in experiment [1] was over 10 µM; in experiment [3], over 10000 nM; in experiment [4], over 1000 nM; in experiment [5], over 1000 nM.
